For data set [1] the following is noted: preservative in nasal sprays and nebulization; cited from earlier work.
In a further data set the test system is SARS-COV-2. The settings on record: two weeks of receiving the quercetin treatment; cited from earlier work.
A further data set deals with influenza virus. The settings on record: cited from earlier work.
A further data set relates to pseudorabies virus. The settings on record: cited from earlier work.
The subject of another data set is cell plasma membrane. Kind of data set: Cells exposed to increasing concentration of M-βCD to deplete plasma membrane cholesterol: phospholipid uptake and membrane fusion proteins. It is filed as cell-based.
The next data set relates to vaccinia virus. The settings on record: depletion of plasma membrane cholesterol in host cells; cited from earlier work.
The mark [2] stands for this setting: increasing concentration of M-βCD, cholesterol depletion.

Take `OCc1ccccc1` [phenylcarbinol]: the “adverse / toxic effects” value in data set [1] is “toxic effects”.
In the case of `O=c1c(O)c(-c2ccc(O)c(O)c2)oc2cc(O)cc(O)c12` [quercetin], the “SARS-COV-2 infected patients cleared of the virus” value in the data set on SARS-COV-2 is 98%. Also, the “therapeutic effects against influenza virus” value in the data set on influenza virus was “therapeutic effects”.
On to Benzalkonium chloride, for which, in data set [1], the “adverse / toxic effects” value is “sino-nasal mucosal injury, nasal squamous metaplasia, ciliary dysmotility, genotoxicity, and other adverse effects”.
Regarding methyl beta cyclodextrin [M-βCD], in the data set with pseudorabies virus, the “entry of pseudorabies virus into cells” value was “significantly reduces”. In the data set with cell plasma membrane (setting [2]), the “uptake of phosphatidyl serine by the cell plasma membrane” value is given as “loss in the uptake” and the “uptake of phosphatidylethanolamine by the cell plasma membrane” value is “remain unchanged”. Besides, the “membrane fusion proteins syntaxin and SNAP25 at the plasma membrane” value in the data set on cell plasma membrane (loss of cholesterol from the cell plasma membrane) is listed as “depletion of membrane fusion proteins”. For the same compound, the “entry of vaccinia virus into cells” value in the data set with vaccinia virus is “significantly reduces”.

(Values after patent US12226431B2 (priority 2021, dated 2025).)
